Calls of active or inactive are those of the source. No rule for the calls is given here.
Experiment: cell viability loss from compound exposure – absorbance, serum-free and serum media, set 2, cytotoxicity control for LYPLA1 inhibitor project, late-stage follow-up (AID 504510)
Settings: serum-free vs serum media

| SMILES | CC50 (serum-free media) | CC50 (with FCS) |
| --- | --- | --- |
| CCC1CCCCN1C(=O)n1ncc(C(O)(c2ccccc2)c2ccccc2)n1 (centres undefined) | > 50 µM (inactive) | > 50 µM (inactive) |
| COCC1CCCCN1C(=O)n1ncc(C(O)(c2ccccc2)c2ccccc2)n1 (centres undefined) | > 50 µM (inactive) | > 50 µM (inactive) |
